According to patent US20240317741A1, “NAPHTHYRIDINE DERIVATIVE AS ATR INHIBITOR AND METHOD FOR PREPARING SAME” (WIGEN BIOMEDICINE TECHNOLOGY (SHANGHAI) CO., LTD., priority 2021, published 2024):

Columns and labels:
[1] = system: Human colon cancer HT29 cells; experiment: In vivo efficacy in HT-29 model, alone and with gemcitabine; design: species or system nude mouse; details: HT-29 model in nude mice, day 21
Procedure: After being subcultured, the cells were collected when they reached the desired amount. 1×10^7 HT29 cells were injected into the left dorsal side of each nude mouse, and the animals were randomly grouped for administration after tumors grew to 100-200 mm^3. The groups were as follows: a solvent control group of 6 mice, a single drug group of 15 mg/kg gemcitabine (GMC), and a combination group of 15 mg/kg gemcitabine and a compound. Gemcitabine was administered intraperitoneally with PBS as a vehicle once a week. The compounds were administered 3 days a week and interrupted for 4 days (3 on/4 off), for 21 consecutive days, and the vehicle was a 0.5% MC suspension containing 1% tween-80. On Tuesday and Thursday each week, tumor volumes and body weight of the mice were measured, and the nude mice were sacrificed on day 21 after the administration. […] The toxicity of the compounds was evaluated according to the body weight of the mice.

MIA PaCa-2 cells [2] = experiment: In-vitro anti-proliferative activity against MIA PaCa-2 cells; format: cell-based; details: Homo sapiens, 72 h after dosing, intracellular ATP content
Procedure: (§1) MIA PaCa-2 cells were seeded on a 384-well plate at 3000 cells/well. After overnight adherence culture, DMSO or the compounds serially diluted 1:5 from 5 μM were added. […] The inhibition percentage of viable cells by the compounds was calculated by comparing with the DMSO group, and the IC50 value was calculated.

MIA PaCa-2 cells [3] = experiment: In-vitro anti-proliferative activity in combination with gemcitabine against MIA PaCa-2 cells; format: cell-based; details: in combination with 20 nM gemcitabine, 72 h after dosing
Procedure: as §1, with “cells/well, and 20 nM gemcitabine was added.” for “cells/well.”, “100 nM” for “5 μM”

[4] = Liver microsomal stability (human); format: in vitro ADME; details: human liver microsomes, 1 μM compound, NADPH regeneration system, 37° C.; read-out: T1/2 (min) Human
Procedure: (§2) After 1 μM compound was incubated with 500 µg/mL of human or mouse liver microsomes and a NADPH regeneration system at 37° C. for different times, respectively, LC-MS-MS was used to analyze the remaining amount of the compound and calculate T1/2.

[5] = Liver microsomal stability (mouse); format: in vitro ADME; details: mouse liver microsomes, 1 μM compound, NADPH regeneration system, 37° C.; read-out: T1/2 (min) Mouse
Procedure: as §2

[6] = In vivo pharmacokinetic experiment in mice; design: species or system CD-1 female mice; details: female, CD-1, mouse, plasma; for Cmax: read-out: Cmax; for Tmax: read-out: Tmax; for Vd: read-out: Vdss
Procedure: CD-1 female mice aged 7 to 10 weeks were intravenously administered and orally administered at a dose of 2 mg/kg and 10 mg/kg, respectively. The mice were fasted for at least 12 h before the administration and given food 4 h after the administration, and they were given ad libitum access to water during the experiment.
On the day of the experiment, animals in the intravenous group were administered the corresponding compound by single injection via the tail vein at an administration volume of 10 mL/kg, and animals in the oral group were administered the corresponding compound by single intragastric injection at an administration volume of 10 mL/kg. The animals were weighed before administration, and the administration volume was calculated according to the body weight. The sample collection time was 0.083 h, 0.167 h, 0.5 h, 1 h, 2 h, 4 h, 8 h and 24 h. About 200 μL of whole blood was collected through the orbital venous plexus at each time point and used to prepare plasma for concentration determination by high performance liquid chromatography-tandem mass spectrometry (LC-MS/MS). The plasma concentrations were processed using a non-compartmental model of Winnolin pharmacokinetic software, and the pharmacokinetic parameters were calculated using a linear-log trapezoidal method.

[7] = system: Human colon cancer LOVO cells; experiment: In vivo efficacy in LoVo model; design: species or system nude mouse; details: LoVo model in nude mice, 20 mpk BID PO, days 1-3, 8-10, 15-17 and day 21
Procedure: After being subcultured, the cells were collected when they reached the desired amount. 1×10^7 LOVO cells were injected into the left dorsal side of each nude mouse, and the animals were randomly grouped for administration after tumors grew to 100-200 mm^3. The groups were as follows: a solvent control group of 8 mice and a compound group of 8 mice. The compounds were administered orally 3 days a week and interrupted for 4 days, for 21 consecutive days. The vehicle was a 0.5% MC suspension containing 1% tween-80. On Tuesday and Thursday each week, tumor volumes and body weight of the mice were measured, and the nude mice were sacrificed on day 21 after the administration. […] The toxicity of the compounds was evaluated according to the body weight of the mice.

[8] = compound 20 mpk BID PO 3 on/4 off + GMC 15 mpk QW IP
[9] = single agent, 20 mpk BID PO, 3on/4off

With Nc1ccn([C@@H]2O[C@H](CO)[C@@H](O)C2(F)F)c(=O)n1 [GMC, gemcitabine, reference compound] the “TGI(%)” value ([1]; GMC alone 15 mpk QW IP, once a week) was 50.7%.
With C[C@@H]1COCCN1c1cc(C2(C#N)CCC(O)CC2)c2ccnc(-c3ccn[nH]3)c2n1 (stereo partly drawn) [Compound 33, (R)-4-hydroxy-1-(2-(3-methylmorpholine)-8-(1H-pyrazol-5-yl)-1,7-naphthyridin-4-yl)cyclohexane-1-carbonitrile] the IC50 (MIA PaCa-2 cells [2]) was < 1000 nM, the IC50 (MIA PaCa-2 cells [3]) was 1.08 nM and the half-life at 1 μM [4] was 632 min. For the same molecule, the half-life at 1 μM [5] was 19.6 min, the AUC(0-t) ([6]; Oral administration (10 mg/kg)) was 937 ng·h/mL and the bioavailability ([6]; Oral administration (10 mg/kg)) was 31.8%. It also gave a half-life ([6]; Oral administration (10 mg/kg)) of 41.4 min, a Cmax ([6]; Oral administration (10 mg/kg)) of 1010 ng/mL and a Tmax ([6]; Oral administration (10 mg/kg)) of 30 min. It also gave an AUC(0-t) ([6]; iv, Injection (2 mg/kg)) of 588 ng·h/mL, a clearance ([6]; iv, Injection (2 mg/kg)) of 56.6 mL/min/kg and a half-life ([6]; iv, Injection (2 mg/kg)) of 96.6 min. For the same molecule, the Vd ([6]; iv, Injection (2 mg/kg)) was 1.27 L/kg, the “TGI(%)” value [7] was 79.1% and the “TGI(%)” value [1, 8] was 82.3%. For the same molecule, the “TGI(%)” value [1, 9] was 57.4%.
Molecule C[C@@H]1COCCN1c1cc(C2(C#N)CCCC2)c2ccnc(-c3ccn[nH]3)c2n1 [Compound 27] has an IC50 (MIA PaCa-2 cells [2]) of 1000 to 5000 nM, an IC50 (MIA PaCa-2 cells [3]) of 1.48 nM and a half-life at 1 μM [4] of 27.2 min. For the same molecule, the half-life at 1 μM [5] was 9.14 min and the “TGI(%)” value [7] was 62.7%.
With C[C@@H]1COCCN1c1cc(C2(C#N)CCC(N(C)C)CC2)c2ccnc(-c3ccn[nH]3)c2n1 (stereo partly drawn) [Compound 34, (R)-4-(dimethylamino)-1-(2-(3-methylmorpholine)-8-(1H-pyrazol-5-yl)-1,7-naphthyridin-4-yl)cyclohexane-1-carbonitrile] the IC50 (MIA PaCa-2 cells [2]) was < 1000 nM, the IC50 (MIA PaCa-2 cells [3]) was 0.624 nM and the half-life at 1 μM [4] was 61.4 min. The half-life at 1 μM [5] was 52.4 min, the “TGI(%)” value [7] was 81.4% and the “TGI(%)” value [1, 8] was 78.1%. The “TGI(%)” value [1, 9] was 58.3%.
For C[C@@H]1COCCN1c1cc(C2(C#N)CCN(C3CCCC3)CC2)c2ccnc(-c3ccn[nH]3)c2n1 [Compound 69], the IC50 (MIA PaCa-2 cells [2]) was < 1000 nM, the half-life at 1 μM [4] was 5.9 min and the half-life at 1 μM [5] was 7.52 min.
For COC1CCC(C#N)(c2cc(N3CCOC[C@H]3C)nc3c(-c4ccn[nH]4)nccc23)CC1 (stereo partly drawn) [Compound 53, (R)-4-methoxy-1-(2-(3-methylmorpholine)-8-(1H-pyrazol-5-yl)-1,7-naphthyridin-4-yl)cyclohexane-1-carbonitrile], the IC50 (MIA PaCa-2 cells [2]) was < 1000 nM, the half-life at 1 μM [4] was 24.8 min and the half-life at 1 μM [5] was 7.78 min. For the same molecule, the AUC(0-t) ([6]; Oral administration (10 mg/kg)) was 669 ng·h/mL, the bioavailability ([6]; Oral administration (10 mg/kg)) was 30.2% and the half-life ([6]; Oral administration (10 mg/kg)) was 87 min. For the same molecule, the Cmax ([6]; Oral administration (10 mg/kg)) was 299 ng/mL, the Tmax ([6]; Oral administration (10 mg/kg)) was 30 min and the AUC(0-t) ([6]; iv, Injection (2 mg/kg)) was 444 ng·h/mL. The clearance ([6]; iv, Injection (2 mg/kg)) was 75.1 mL/min/kg, the half-life ([6]; iv, Injection (2 mg/kg)) was 16.2 min and the Vd ([6]; iv, Injection (2 mg/kg)) was 1.61 L/kg.
In the case of C[C@@H]1COCCN1c1cc(C2(C#N)CCC(N3CCCC3)CC2)c2ccnc(-c3ccn[nH]3)c2n1 (some centres unmarked) [Compound 35], the IC50 (MIA PaCa-2 cells [2]) is reported as < 1000 nM and the IC50 (MIA PaCa-2 cells [3]) is reported as 0.661 nM.
With C[C@@H]1COCCN1c1cc(C2(C#N)CCN(CC3CCC3)CC2)c2ccnc(-c3ccn[nH]3)c2n1 [Compound 83] the IC50 (MIA PaCa-2 cells [2]) was < 1000 nM.
CC(C)C(C#N)c1cc(N2CCOC[C@H]2C)nc2c(-c3ccn[nH]3)nccc12 (some centres unmarked) [Compound 5] gave an IC50 (MIA PaCa-2 cells [2]) of 1000 to 5000 nM.
With C[C@@H]1COCCN1c1cc(C(C#N)CCO)c2ccnc(-c3ccn[nH]3)c2n1 (some centres unmarked) [Compound 9] the IC50 (MIA PaCa-2 cells [2]) was 1000 to 5000 nM.
For C[C@@H]1COCCN1c1cc(C(C#N)C2CCC2)c2ccnc(-c3ccn[nH]3)c2n1 (some centres unmarked) [Compound 20], the IC50 (MIA PaCa-2 cells [2]) was > 5000 nM.
In the case of CCOC1CCC(C#N)(c2cc(N3CCOC[C@H]3C)nc3c(-c4ccn[nH]4)nccc23)CC1 (some centres unmarked) [Compound 54], the IC50 (MIA PaCa-2 cells [2]) is reported as < 1000 nM.
C[C@@H]1COCCN1c1cc(C2(C#N)CCNCC2)c2ccnc(-c3ccn[nH]3)c2n1 [Compound 37, (R)-4-(2-(3-methylmorpholino)-8-(1H-pyrazol-5-yl)-1,7-naphthyridin-4-yl)piperidine-4-carbonitrile] gave an IC50 (MIA PaCa-2 cells [2]) of 1000 to 5000 nM.
With C[C@@H]1COCCN1c1cc(C2(C#N)CCN(CC(F)(F)F)CC2)c2ccnc(-c3ccn[nH]3)c2n1 [Compound 41, (R)-4-(2-(3-methylmorpholino)-8-(1H-pyrazol-5-yl)-1,7-naphthyridin-4-yl)-1-(2,2,2-trifluoroethyl)piperidine-4-carbonitrile] the IC50 (MIA PaCa-2 cells [2]) was < 1000 nM.
For C[C@@H]1COCCN1c1cc(C2(C#N)CCN(C3CCN(C)CC3)CC2)c2ccnc(-c3ccn[nH]3)c2n1 [Compound 44], the IC50 (MIA PaCa-2 cells [2]) was < 1000 nM.
For C[C@@H]1COCCN1c1cc(C2(C#N)CCN(S(C)(=O)=O)CC2)c2ccnc(-c3ccn[nH]3)c2n1 [Compound 39], the IC50 (MIA PaCa-2 cells [2]) was 1000 to 5000 nM.
Work on COCCC(C#N)c1cc(N2CCOC[C@H]2C)nc2c(-c3ccn[nH]3)nccc12 (some centres unmarked) [Compound 10] yielded an IC50 (MIA PaCa-2 cells [2]) of 1000 to 5000 nM.
